The record followed here is patent publication US10370343B2, “[6,6] Fused bicyclic HDAC8 inhibitors” (FORMA Therapeutics, Inc., priority 2015, dated 2019).

Some results are limits rather than exact numbers.

In assay [1] the target is T1, Full length human recombinant HDAC8 protein (Homo sapiens, UniProt Q9BY41).
T1 construct: Full length human recombinant HDAC8 protein was expressed in baculoviral system; made in house
T1 sequence (Q9BY41 1-377): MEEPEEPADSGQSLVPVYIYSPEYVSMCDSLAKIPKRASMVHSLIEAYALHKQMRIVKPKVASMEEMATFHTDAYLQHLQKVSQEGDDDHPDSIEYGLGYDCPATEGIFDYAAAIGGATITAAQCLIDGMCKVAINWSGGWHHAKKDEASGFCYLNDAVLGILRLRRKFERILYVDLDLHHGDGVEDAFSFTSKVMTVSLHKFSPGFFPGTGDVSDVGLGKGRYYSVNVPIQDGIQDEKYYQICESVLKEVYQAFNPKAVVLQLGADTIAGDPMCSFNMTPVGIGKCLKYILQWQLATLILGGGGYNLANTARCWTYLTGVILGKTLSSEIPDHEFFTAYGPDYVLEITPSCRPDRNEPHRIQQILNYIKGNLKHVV
The experiment in a line: In vitro histone deacetylase assay: enzymatic HDAC8 electrophoretic mobility shift assay. It is filed as biochemical. Conditions: electrophoretic mobility shift assay; enzyme 1 nM; 2 μM fluorescently labeled peptide substrate RHKK(Ac)-NH2; 25° C.; 12 concentrations; read-out: HDAC8 IC50. On the technique in general: In EMSA bound probe runs differently from free probe, usually more slowly.

The target of assay [2] is T2, Recombinant N-terminal GST tag full-length human HDAC8 (Homo sapiens, UniProt Q9BY41).
T2 construct: Recombinant N-terminal GST tag full-length human HDAC8; purchased SignalChem H90-30G-1000; host or cells: baculovirus in Sf9 insect cells
T2 sequence (Q9BY41 1-377): T1 sequence (Q9BY41 1-377)
Description: HDAC8 probe binding assay, time resolved fluorescence (TRF) format. Conditions: compounds grouped by IC50 range (Table 2). An outline of the steps: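 Probe-binding TRF assay using full-length N-GST human HDAC8 expressed in baculovirus-infected Sf9 cells, incubated 16 h at room temperature and read at 340 nm excitation, 485/535 nm emission. Percent inhibition was normalised to no-enzyme and DMSO controls. IC50 was obtained by 4-parameter logistic fit.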

With `COc1ccc(CN2C(=O)COc3ccc(C(=O)NO)cc32)c(C(F)(F)F)c1` [Compound I-249, N-hydroxy-4-(4-methoxy-2-(trifluoromethyl)benzyl)-3-oxo-3,4-dihydro-2H-benzo[b][1,4]oxazine-6-carboxamide], the half-inhibitory concentration (IC50) in assay [1] lay within 100 to 1000 nM; in assay [2], 25 to 100 nM.

On to `CCOc1c(F)cc(CN2C(=O)COc3ccc(C(=O)NO)cc32)cc1F` [Compound I-250, 4-(4-ethoxy-3,5-difluorobenzyl)-N-hydroxy-3-oxo-3,4-dihydro-2H-benzo[b][1,4]oxazine-6-carboxamide], for which the IC50 in assay [1] and in assay [2] was 25 to 100 nM throughout.

Regarding `O=C(NO)c1ccc2c(c1)N(Cc1ccc(-c3ccccc3)cc1)C(=O)CO2` [Compound I-251, 4-([1,1′-biphenyl]-4-ylmethyl)-N-hydroxy-3-oxo-3,4-dihydro-2H-benzo[b][1,4]oxazine-6-carboxamide], the figures for the IC50 in assay [1] and in assay [2] were less than 25 nM and no more than 25 nM, respectively.

As to `O=C(NO)c1ccc2c(c1)N(Cc1cc(Cl)ccc1Cl)C(=O)CO2` [Compound I-252, 4-(2,5-dichlorobenzyl)-N-hydroxy-3-oxo-3,4-dihydro-2H-benzo[b][1,4]oxazine-6-carboxamide], the 50% inhibitory concentration (IC50) in assay [1] is less than 25 nM; in assay [2] it was no more than 25 nM.

For `O=C(NO)c1ccc2c(c1)N(Cc1c(Cl)cccc1Cl)C(=O)CO2` [Compound I-253, 4-(2,6-dichlorobenzyl)-N-hydroxy-3-oxo-3,4-dihydro-2H-benzo[b][1,4]oxazine-6-carboxamide], the IC50 in assay [1] and in assay [2] was 25 to 100 nM throughout.

In the case of `O=C(NO)c1ccc2c(c1)N(Cc1cccc(Cl)c1Cl)C(=O)CO2` [Compound I-254, 4-(2,3-dichlorobenzyl)-N-hydroxy-3-oxo-3,4-dihydro-2H-benzo[b][1,4]oxazine-6-carboxamide], the IC50 in assay [1] was less than 25 nM; in assay [2], no more than 25 nM.

For the compound `O=C(NO)c1ccc2c(c1)N(Cc1nc(-c3ccccc3)sc1Cl)C(=O)CO2` [Compound I-255, 4-((5-chloro-2-phenylthiazol-4-yl)methyl)-N-hydroxy-3-oxo-3,4-dihydro-2H-benzo[b][1,4]oxazine-6-carboxamide], the results for the IC50 in assay [1] and in assay [2] were 25 to 100 nM and no more than 25 nM, respectively.

Regarding `O=C(NO)c1ccc2c(c1)N(Cc1ccc(Cl)cc1Cl)C(=O)CO2` [Compound I-256, 4-(2,4-dichlorobenzyl)-N-hydroxy-3-oxo-3,4-dihydro-2H-benzo[b][1,4]oxazine-6-carboxamide], the half-maximal inhibitory concentration (IC50) in assay [1] is less than 25 nM; in assay [2] it was no more than 25 nM.

Turning to `O=C(NO)c1ccc2c(c1)N(Cc1ccc(Cl)c(Cl)c1)C(=O)CO2` [Compound I-258, 4-(3,4-dichlorobenzyl)-N-hydroxy-3-oxo-3,4-dihydro-2H-benzo[b][1,4]oxazine-6-carboxamide], the half-maximal inhibitory concentration (IC50) in assay [1] was less than 25 nM; in assay [2], no more than 25 nM.

As to `O=C(NO)c1ccc2c(c1)N(Cc1cc(C(F)(F)F)ccc1Cl)C(=O)CO2` [Compound I-259, 4-(2-chloro-5-(trifluoromethyl)benzyl)-N-hydroxy-3-oxo-3,4-dihydro-2H-benzo[b][1,4]oxazine-6-carboxamide], the IC50 in assay [1] was less than 25 nM; in assay [2], no more than 25 nM.

As to `O=C(NO)c1ccc2c(c1)N(Cc1cccc(SC(F)(F)F)c1)C(=O)CO2` [Compound I-263, N-hydroxy-3-oxo-4-(3-((trifluoromethyl)thio)benzyl)-3,4-dihydro-2H-benzo[b][1,4]oxazine-6-carboxamide], the 50% inhibitory concentration (IC50) in assay [1] was less than 25 nM; in assay [2] it was no more than 25 nM.

For `O=C(NO)c1ccc2c(c1)N(Cc1ccc(SC(F)(F)F)cc1)C(=O)CO2` [Compound I-264, N-hydroxy-3-oxo-4-(4-((trifluoromethyl)thio)benzyl)-3,4-dihydro-2H-benzo[b][1,4]oxazine-6-carboxamide], the values for the half-inhibitory concentration (IC50) in assay [1] and in assay [2] were less than 25 nM and no more than 25 nM, respectively.

For the compound `O=C(NO)c1ccc2c(c1)N(Cc1cccc(C(F)(F)F)c1F)C(=O)CO2` [Compound I-265, 4-(2-fluoro-3-(trifluoromethyl)benzyl)-N-hydroxy-3-oxo-3,4-dihydro-2H-benzo[b][1,4]oxazine-6-carboxamide], the concentration for half-maximal inhibition (IC50) in assay [1] and in assay [2] was 25 to 100 nM each time.

`O=C(NO)c1ccc2c(c1)N(Cc1ccc(F)c(C(F)(F)F)c1)C(=O)CO2` [Compound I-267, 4-(4-fluoro-3-(trifluoromethyl)benzyl)-N-hydroxy-3-oxo-3,4-dihydro-2H-benzo[b][1,4]oxazine-6-carboxamide]: the IC50 in assay [1] and in assay [2] was 25 to 100 nM throughout.

Turning to `O=C(NO)c1ccc2c(c1)N(Cc1cc(F)ccc1C(F)(F)F)C(=O)CO2` [Compound I-268, 4-(5-fluoro-2-(trifluoromethyl)benzyl)-N-hydroxy-3-oxo-3,4-dihydro-2H-benzo[b][1,4]oxazine-6-carboxamide], the half-maximal inhibitory concentration (IC50) in assay [1] and in assay [2] was 25 to 100 nM each time.

As to `O=C(NO)c1ccc2c(c1)N(Cc1ccc(F)cc1Cl)C(=O)CO2` [Compound I-270, 4-(2-chloro-4-fluorobenzyl)-N-hydroxy-3-oxo-3,4-dihydro-2H-benzo[b][1,4]oxazine-6-carboxamide], the 50% inhibitory concentration (IC50) in assay [1] was less than 25 nM; in assay [2], no more than 25 nM.

With `O=C(NO)c1ccc2c(c1)N(Cc1csc(-c3ccccc3)n1)C(=O)CO2` [Compound I-271, N-hydroxy-3-oxo-4-((2-phenylthiazol-4-yl)methyl)-3,4-dihydro-2H-benzo[b][1,4]oxazine-6-carboxamide], the IC50 in assay [1] and in assay [2] was 25 to 100 nM throughout.

For the compound `O=C(NO)c1ccc2c(c1)N(Cc1nc3cc(Cl)ccc3o1)C(=O)CO2` [Compound I-272, 4-((5-chlorobenzo[d]oxazol-2-yl)methyl)-N-hydroxy-3-oxo-3,4-dihydro-2H-benzo[b][1,4]oxazine-6-carboxamide], the results for the IC50 in assay [1] and in assay [2] were less than 25 nM and no more than 25 nM, respectively.

Consider `O=C(NO)c1ccc2c(c1)N(Cc1c(F)cccc1Cl)C(=O)CO2` [Compound I-273, 4-(2-chloro-6-fluorobenzyl)-N-hydroxy-3-oxo-3,4-dihydro-2H-benzo[b][1,4]oxazine-6-carboxamide], for which the IC50 in assay [1] and in assay [2] was 25 to 100 nM throughout.

With `O=C(NO)c1ccc2c(c1)N(Cc1ccc(C(F)(F)F)cc1F)C(=O)CO2` [Compound I-274, 4-(2-fluoro-4-(trifluoromethyl)benzyl)-N-hydroxy-3-oxo-3,4-dihydro-2H-benzo[b][1,4]oxazine-6-carboxamide], the values for the IC50 in assay [1] and in assay [2] were less than 25 nM and no more than 25 nM, respectively.

`O=C(NO)c1ccc2c(c1)N(Cc1c(F)cccc1C(F)(F)F)C(=O)CO2` [Compound I-275, 4-(2-fluoro-6-(trifluoromethyl)benzyl)-N-hydroxy-3-oxo-3,4-dihydro-2H-benzo[b][1,4]oxazine-6-carboxamide]: the 50% inhibitory concentration (IC50) in assay [1] and in assay [2] was 25 to 100 nM throughout.

For the compound `O=C(NO)c1ccc2c(c1)N(Cc1cc(F)cc(C(F)(F)F)c1)C(=O)CO2` [Compound I-276, 4-(3-fluoro-5-(trifluoromethyl)benzyl)-N-hydroxy-3-oxo-3,4-dihydro-2H-benzo[b][1,4]oxazine-6-carboxamide], the IC50 in assay [1] and in assay [2] was 25 to 100 nM each time.

In the case of `O=C(NO)c1ccc2c(c1)N(Cc1ccc(F)cc1C(F)(F)F)C(=O)CO2` [Compound I-277, 4-(4-fluoro-2-(trifluoromethyl)benzyl)-N-hydroxy-3-oxo-3,4-dihydro-2H-benzo[b][1,4]oxazine-6-carboxamide], the half-inhibitory concentration (IC50) lay within 100 to 1000 nM in assay [1] and 25 to 100 nM in assay [2].

`Cn1c(CN2C(=O)COc3ccc(C(=O)NO)cc32)nc2ccc(Cl)cc21` [Compound I-278, 4-((6-chloro-1-methyl-1H-benzo[d]imidazol-2-yl)methyl)-N-hydroxy-3-oxo-3,4-dihydro-2H-benzo[b][1,4]oxazine-6-carboxamide]: the half-maximal inhibitory concentration (IC50) in assay [1] and in assay [2] was 25 to 100 nM in each case.

On to `Cc1ccc(CN2C(=O)COc3ccc(C(=O)NO)cc32)c(C)c1` [Compound I-280, 4-(2,4-dimethylbenzyl)-N-hydroxy-3-oxo-3,4-dihydro-2H-benzo[b][1,4]oxazine-6-carboxamide], for which the 50% inhibitory concentration (IC50) in assay [1] is 25 to 100 nM; in assay [2] it was no more than 25 nM.

As for `CC(C)n1c(CN2C(=O)COc3ccc(C(=O)NO)cc32)nc2ccccc21` [Compound I-281, N-hydroxy-4-((1-isopropyl-1H-benzo[d]imidazol-2-yl)methyl)-3-oxo-3,4-dihydro-2H-benzo[b][1,4]oxazine-6-carboxamide], the figures for the IC50 in assay [1] and in assay [2] were 100 to 1000 nM and greater than 1000 nM, respectively.

Consider `O=C(NO)c1ccc2c(c1)N(Cc1nc3cccnc3n1Cc1ccccc1)C(=O)CO2` [Compound I-284, 4-((3-benzyl-3H-imidazo[4,5-b]pyridin-2-yl)methyl)-N-hydroxy-3-oxo-3,4-dihydro-2H-benzo[b][1,4]oxazine-6-carboxamide], for which the IC50 in assay [1] and in assay [2] was 25 to 100 nM in each case.

One may read the IC50 as the concentration that gives 50% inhibition.
